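A five-concentration, 48-hour dose response in 96-well plates underlies each endpoint, interpolated linearly between surrounding concentrations. GI50 marks 50% less growth. TGI: total growth inhibition.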
Assays:
Experiment in all cases: NCI anticancer screen, dose series, 48 h
[1] = tested on: UACC-62 melanoma
[2] = tested on: SK-OV-3 ovarian
[3] = tested on: U251 CNS
[4] = tested on: OVCAR-3 ovarian
[5] = tested on: A549 NSCLC
[6] = tested on: SNB-19 CNS
[7] = tested on: TK-10 renal
[8] = tested on: MOLT-4 leukemia
[9] = tested on: SF-295 CNS
[10] = tested on: UACC-257 melanoma
[11] = tested on: MALME-3M melanoma
[12] = tested on: HCT-15 colon
[13] = tested on: K-562 leukemia
[14] = tested on: MDA-MB-231 breast
[15] = tested on: LOX IMVI melanoma
[16] = tested on: 786-0 renal
[17] = tested on: CCRF-CEM leukemia
[18] = tested on: PC-3 prostate
[19] = tested on: CAKI-1 renal
[20] = tested on: OVCAR-4 ovarian
[21] = tested on: HCT-116 colon
[22] = tested on: T-47D breast
[23] = tested on: KM12 colon
[24] = tested on: HOP-92 NSCLC
[25] = tested on: MCF7 breast
[26] = tested on: SR leukemia
[27] = tested on: NCI-H226 lung
[28] = tested on: HL-60(TB) leukemia
[29] = tested on: SF-268 CNS
[30] = tested on: SNB-75 CNS
[31] = tested on: BT-549 breast
[32] = tested on: OVCAR-5 ovarian
[33] = tested on: SN12C renal
[34] = tested on: OVCAR-8 ovarian
[35] = tested on: SK-MEL-5 melanoma
[36] = tested on: HT29 colon
[37] = tested on: SW-620 colon
[38] = tested on: HOP-62 NSCLC
[39] = tested on: MDA-MB-435
[40] = tested on: COLO 205 colon
[41] = tested on: UO-31 renal
[42] = tested on: NCI-H460 lung
[43] = tested on: ACHN renal
[44] = tested on: EKVX NSCLC
[45] = tested on: A498 renal
[46] = tested on: SK-MEL-28 melanoma
[47] = tested on: NCI-H522 lung
[48] = tested on: NCI/ADR-RES ovarian
[49] = tested on: IGROV1 ovarian
[50] = tested on: SK-MEL-2 melanoma
[51] = tested on: RPMI-8226 leukemia
[52] = tested on: NCI-H23 lung
[53] = tested on: RXF 393 renal
[54] = tested on: HCC-2998 colon
[55] = tested on: HS 578T breast
[56] = tested on: M14 melanoma
[57] = tested on: DU-145 prostate
[58] = tested on: SF-539 CNS

Structure (SMILES): FC(F)(c1ccc2ncccc2c1)c1nnc2ccc(-c3ccncc3)nn12
- GI50 [1]: > 100 µM
- TGI [1]: > 100 µM
- GI50 [2]: > 100 µM
- TGI [2]: > 100 µM
- GI50 [3]: 95.2 µM
- TGI [3]: > 100 µM
- GI50 [4]: > 100 µM
- TGI [4]: > 100 µM
- GI50 [5]: 76.8 µM
- TGI [5]: > 100 µM
- GI50 [6]: > 100 µM
- TGI [6]: > 100 µM
- GI50 [7]: 73.1 µM
- TGI [7]: > 100 µM
- GI50 [8]: 38.4 µM
- TGI [8]: > 100 µM
- GI50 [9]: 2.21 µM
- TGI [9]: > 100 µM
- GI50 [10]: > 100 µM
- TGI [10]: > 100 µM
- GI50 [11]: > 100 µM
- TGI [11]: > 100 µM
- GI50 [12]: 60 µM
- TGI [12]: > 100 µM
- GI50 [13]: 52.7 µM
- TGI [13]: > 100 µM
- GI50 [14]: 31 µM
- TGI [14]: > 100 µM
- GI50 [15]: 49.6 µM
- TGI [15]: > 100 µM
- GI50 [16]: 69.3 µM
- TGI [16]: > 100 µM
- GI50 [17]: > 100 µM
- TGI [17]: > 100 µM
- GI50 [18]: 74.6 µM
- TGI [18]: > 100 µM
- GI50 [19]: 25.1 µM
- TGI [19]: > 100 µM
- GI50 [20]: > 100 µM
- TGI [20]: > 100 µM
- GI50 [21]: 95.8 µM
- TGI [21]: > 100 µM
- GI50 [22]: 61.9 µM
- TGI [22]: > 100 µM
- GI50 [23]: 69.7 µM
- TGI [23]: > 100 µM
- GI50 [24]: 18.3 µM
- TGI [24]: > 100 µM
- GI50 [25]: 95.3 µM
- TGI [25]: > 100 µM
- GI50 [26]: > 100 µM
- TGI [26]: > 100 µM
- GI50 [27]: 45.9 µM
- TGI [27]: > 100 µM
- GI50 [28]: > 100 µM
- TGI [28]: > 100 µM
- GI50 [29]: 66.5 µM
- TGI [29]: > 100 µM
- GI50 [30]: 19 µM
- TGI [30]: > 100 µM
- GI50 [31]: 53.7 µM
- TGI [31]: > 100 µM
- GI50 [32]: > 100 µM
- TGI [32]: > 100 µM
- GI50 [33]: 37.1 µM
- TGI [33]: > 100 µM
- GI50 [34]: 84.1 µM
- TGI [34]: > 100 µM
- GI50 [35]: 48.5 µM
- TGI [35]: > 100 µM
- GI50 [36]: > 100 µM
- TGI [36]: > 100 µM
- GI50 [37]: > 100 µM
- TGI [37]: > 100 µM
- GI50 [38]: 62.7 µM
- TGI [38]: > 100 µM
- GI50 [39]: > 100 µM
- TGI [39]: > 100 µM
- GI50 [40]: 91.1 µM
- TGI [40]: > 100 µM
- GI50 [41]: 19.2 µM
- TGI [41]: > 100 µM
- GI50 [42]: > 100 µM
- TGI [42]: > 100 µM
- GI50 [43]: 50.2 µM
- TGI [43]: > 100 µM
- GI50 [44]: 21.4 µM
- TGI [44]: > 100 µM
- GI50 [45]: 19.3 µM
- TGI [45]: > 100 µM
- GI50 [46]: > 100 µM
- TGI [46]: > 100 µM
- GI50 [47]: > 100 µM
- TGI [47]: > 100 µM
- GI50 [48]: 64.3 µM
- TGI [48]: > 100 µM
- GI50 [49]: 49.4 µM
- TGI [49]: > 100 µM
- GI50 [50]: > 100 µM
- TGI [50]: > 100 µM
- GI50 [51]: 53.3 µM
- TGI [51]: > 100 µM
- GI50 [52]: > 100 µM
- TGI [52]: > 100 µM
- GI50 [53]: 16.4 µM
- TGI [53]: 83.8 µM
- GI50 [54]: > 100 µM
- TGI [54]: > 100 µM
- GI50 [55]: 22.3 µM
- TGI [55]: > 100 µM
- GI50 [56]: > 100 µM
- TGI [56]: > 100 µM
- GI50 [57]: > 100 µM
- TGI [57]: > 100 µM
- GI50 [58]: 46.4 µM
- TGI [58]: > 100 µM
